# In publication PMC11435438, “Cyclin-Dependent Kinase 8 Represents a Positive Regulator of Cytomegalovirus Replication and a Novel Host Target for Antiviral Strategies” (Pharmaceutics, 2024):
# Where two headings read alike, the source gives them in different places.
# Experiments:
# HCMV AD169-GFP [1] = system: HCMV AD169-GFP; design: method as in PMID 35269635; conditions: GFP-based replication assay in HFFs, mean ± SD; cited from earlier work
# mock-infected HFFs = conditions: cited from earlier work
# HCMV AD169-GFP [2] = experiment: microbe, parasite or virus in culture; assay type: cell-based, human cytomegalovirus; conditions: ratio CC50/EC50; HCMV AD169-GFP, HFFs
# Protocol: (i.e., 1 × TCID25/7d). Immediately after virus adsorption, the cells were treated with antiviral compounds or solvent control (DMSO). Infections were performed in biological quadruplicates, or as indicated for individual experiments. The cells were fixed by the addition of 150 µL 10% formalin/well 7 d p.i. (Merlin-GFP 14 d p.i.), and washed with PBS. For GFP or YFP quantitation, the Victor X4 microplate reader (PerkinElmer, Waltham, MA, USA) was primarily used, or as a very sensitive alternative, the ImageXpress® Pico device (Molecular Devices LLC, San Jose, CA, USA). Mean EC50 values of antiviral efficacy were calculated on the basis of three experimental replicates or as indicated (measurement of fluorescence values in quadruplicate), and percentage values were provided relative to the solvent control (DMSO).
# [3] = system: HCMV core NEC pUL50-pUL53; experiment: Nuclear rim localization of viral core NEC pUL50-pUL53 (IF, confocal imaging); assay type: cell-based, human cytomegalovirus; conditions: 0.5 µM MBV, 5 nM CCT, 2 nM MSC, 0.7 nM BI; HFFs, AD169-UL50-HA MOI 0.05, 7 d p.i.
# Protocol: In order to investigate viral protein expression and localization, 3 × 10^5 HFFs were seeded in 6-well plates one day prior to infection with HCMV AD169-UL50-HA (MOI 0.05). After 90 min of viral absorption, cells were treated with 0.5 µM MBV, 5 nM CCT, 2 nM MSC or 0.7 nM BI-1347. The infected cells were fixed at 7 d p.i., before indirect immunofluorescence staining was performed for viral IE1, pUL50, and pUL53, and signals were evaluated by confocal laser-scanning microscopy (Leica Microsystems, TCS SP5, Wetzlar, Germany). The counterstaining of the nuclei was performed with DAPI.
# [4] = mock-infected HFFs, Neutral Red assay, mean ± SD
SMILES,EC50 (HCMV AD169-GFP [1]) [nM],CC50 (mock-infected HFFs) [µM],SI (selectivity index) (HCMV AD169-GFP [2]),nuclear rim localization of core NEC pUL50-pUL53 [3],CC50 (mock-infected HFFs; [4]) [µM]
CC(C)c1cnn2c(NCc3ccccc3-n3cccn3)nc(OC3CCCNC3)nc12 (stereo not drawn) [LDC4297],9 ± 2,> 10,,,
"CC(C)Nc1nc2cc(Cl)c(Cl)cc2n1[C@H]1O[C@@H](CO)[C@H](O)[C@@H]1O [MBV, maribavir]",350 ± 420,,>250,clear disruption of the smooth rim,> 100
Cc1c(Br)c(Br)c2c3c1nc(N1CCNCC1)n3CCC2 [SEL120],79 ± 1,,75,,5.9 ± 3.85
